# From BindingDB's records for doi:10.1021/jm058208o (Universidad Central De Venezuela, 2005)
# Target: Falcipain-2 (Plasmodium falciparum, UniProt Q9NAW2)
# Test: Falcipain Enzyme Inhibition Assay
# Details: pH 5.5; 22 °C
# Protocol: The substrate peptide terminating in AMC is processed by falcipain-2 with or without inhibitors, and the accumulation of AMC was monitored in a Labsystems Fluoroskan Ascent spectrofluorometer. IC50 values were determined from plots of percent activity over concentration using GraphPad Prism software.
# Sequence of Falcipain-2 (Q9NAW2 whole entry): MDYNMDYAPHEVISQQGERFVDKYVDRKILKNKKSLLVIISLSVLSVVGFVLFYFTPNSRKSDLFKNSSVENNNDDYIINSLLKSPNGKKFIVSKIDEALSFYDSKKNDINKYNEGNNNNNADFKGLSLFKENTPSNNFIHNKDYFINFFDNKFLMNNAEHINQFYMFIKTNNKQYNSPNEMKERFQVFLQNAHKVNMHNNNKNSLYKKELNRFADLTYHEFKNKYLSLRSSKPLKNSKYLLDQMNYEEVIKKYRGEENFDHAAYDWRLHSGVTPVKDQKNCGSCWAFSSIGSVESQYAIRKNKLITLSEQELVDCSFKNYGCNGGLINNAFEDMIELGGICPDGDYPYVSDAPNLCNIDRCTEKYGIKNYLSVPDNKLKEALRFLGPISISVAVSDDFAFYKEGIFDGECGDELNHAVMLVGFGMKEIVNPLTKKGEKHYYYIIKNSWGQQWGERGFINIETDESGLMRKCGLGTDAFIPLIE
row,SMILES,IC50 [µM]
1,O=C(Nc1ccc(Cl)cc1)Nc1ccc(C(=O)/C=C/c2cccnc2)cc1 [3-(4-chlorophenyl)-1-{4-[(2E)-3-(pyridin-3-yl)prop-2-enoyl]phenyl}urea],3.4
2,COc1ccc(NC(=O)Nc2ccc(C(=O)/C=C/c3cccnc3)cc2)cc1 [3-(4-methoxyphenyl)-1-{4-[(2E)-3-(pyridin-3-yl)prop-2-enoyl]phenyl}urea],12.5
3,CC(C)C[C@H](NC(=O)[C@@H]1O[C@H]1C(=O)O)C(=O)NCCCCN=C(N)N [L-trans-3-Carboxyoxiran-2-carbonyl-L-leucylagmatine],0.058
